{"source": "paper PMC8480782", "about": "“Efficient Dimerization Disruption of Leishmania infantum Trypanothione Reductase by Triazole-phenyl-thiazoles” (Journal of Medicinal Chemistry, 2021)", "molecular_target": "T1, LiTryR (Leishmania infantum, UniProt A4HSF7)", "T1 construct": "HIS (N); made in house; host or cells: E. coli BL21 (DE3) Rossetta", "T1 sequence (A4HSF7 1-491)": "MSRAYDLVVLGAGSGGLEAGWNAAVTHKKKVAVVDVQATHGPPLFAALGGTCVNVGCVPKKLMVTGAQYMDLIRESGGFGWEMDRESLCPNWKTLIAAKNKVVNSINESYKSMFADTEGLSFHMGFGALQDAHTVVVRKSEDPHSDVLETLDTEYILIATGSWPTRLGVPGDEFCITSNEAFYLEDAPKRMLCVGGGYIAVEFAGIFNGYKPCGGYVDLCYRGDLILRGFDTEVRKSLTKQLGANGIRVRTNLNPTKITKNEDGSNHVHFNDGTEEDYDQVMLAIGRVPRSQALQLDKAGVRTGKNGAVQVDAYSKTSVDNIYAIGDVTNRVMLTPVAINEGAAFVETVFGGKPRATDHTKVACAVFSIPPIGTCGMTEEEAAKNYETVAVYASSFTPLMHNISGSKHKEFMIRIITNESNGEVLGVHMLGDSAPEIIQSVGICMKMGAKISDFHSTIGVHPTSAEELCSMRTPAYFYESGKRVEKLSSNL", "experiment": "Residual activity of LiTryR after incubation with inhibitor and 2500-fold dilution", "type": "biochemical", "conditions": "LiTryR 400 nM, 25 μM inhibitor 16 h", "protocol": "Adjustment to eq 1 (see equations in Experimental Section) of the progress curves of the reactions catalyzed by LiTryR allowed us to obtain the kobs values for six 19a concentrations (4.4, 5.9, 7.9, 10.5, 14.1, and 18.7 μM) at six different TS2 concentrations (3.1, 6.2, 12.5, 25, 50, and 100 μM) (Figures S2–S7 and Table S2). The different kobs values obtained at each substrate concentration can be used to determine the apparent inhibitory constants Ki^app and Ki*^app defined as the dissociation constant for the initial EI complex and the constant for the overall dissociation from E*I to E + I, respectively (eq 2).[42a],[42b] Based on the relationship among kobs, vi, and vs (k6 = kobs × vi/vs) at all of the trypanothione disulfide (TS2) and 19a concentrations assayed, k6 varies between 3.9 × 10^–6 and 6.5 × 10^–5 s^–1. […] Fixing this value for k6 rendered very good estimations of Ki^app and Ki*^app after the fitting process for all of the substrate concentrations assayed (Figure 3 and Table 2).\nScheme S4. Reversible sing le-step mechanism of t im e- dependent inhibition of Li TryR by […]\n& A slow and reversible equilibrium between enzyme and inhibitor is governed by association and dissociation rate constants (k3 and k4, res pec tively).\nFigure S13. Residual activity of Li TryR after incubation with 19a. […] Samples were diluted (2500-fold) and residual activity was evaluated. […]"}
{"smiles": "NCCCCc1cn(-c2ccc(-c3nc(-c4ccccc4)c(-c4ccccc4)s3)c(OCCN3CCNC3=O)c2)nn1.O=C(O)C(F)(F)F", "note": "[19a, 1-(2-(5-(4-(4-Ammoniobutyl)-1H-1,2,3-triazol-1-yl)-2-(4,5-diphenylthiazol-2-yl)phenoxy)ethyl)imidazolidin-2-one 2,2,2-Trifluoroacetate]", "values": [{"measurement": "recovery of enzymatic activity after inactivation", "value": "extremely slow process of recovery of the enzymatic activity"}]}
